A short description of data set [1]: In-vitro release of 5-FU from partially encapsulated multilayer polymeric films.
Procedure: In-Vitro release of 5-Fluoro-Uracil (5-FU) has been quantified over time from Partially Encapsulated Multilayer Polymeric films.
The resulting test articles, 2.5 mm diameter×1.25 mm high, were immersed in a PBS solution supplemented by 2 percent FBS onto a shaker in an incubator at 37 degrees Celsius. Release of 5-FU was quantified by HPLC-UV as follows: after filtration, aliquots were injected onto an Agilent 1100 column (50×4.6 mm×3 um with guard column). The 5-FU detection was performed via a UV Detector (Wavelength: 265 nm). The flow rate was 1.0 mL/min. The mobile phase was a mixture of TFA (0.1 percent) and Acetonitrile.
The nature of data set [2]: In-vitro release of bimatoprost from fully encapsulated multilayer polymeric films. The note with it: for release profile of bimatoprost: PBS + 2 percent FBS, 37 degrees Celsius. The data set is classed as physicochemical. How it is done:
In Vitro release studies were performed using the fully encapsulated polymeric films (wherein the carrier discs are fully encapsulated within the surrounding barrier layers) containing bimatoprost as prepared in Example 6.

Data set [3] is described as follows: Thermal decomposition of bioactive agent. The class given is physicochemical.
Setting [4] is: partially encapsulated film, 30 percent w/w.
The mark [5] stands for this setting: fully encapsulated film laminated at 140 degrees Fahrenheit (60 degrees Celsius).

Regarding `O=c1[nH]cc(F)c(=O)[nH]1` [5-FU, 5-Fluoro-Uracil], the “release profile of 5-FU” value in data set [1] (fully encapsulated films with no adhesive layers) is “delayed sustained release”. Also, in data set [1] (setting [4]), the burst duration came out at 2 days, the “rest period after burst” value is “approximately 9 days” and the “start of delayed sustained release” value was around 11 days. For the same molecule, the “release profile of 5-FU” value in data set [1] (partially encapsulated film, 30 percent w/w, 2.5 mm disk, PBS + 2 percent FBS, 37 degrees Celsius) is reported as “bimodal release profile”.

Turning to `CCNC(=O)CCC/C=C\C[C@@H]1[C@@H](/C=C/[C@@H](O)CCc2ccccc2)[C@H](O)C[C@@H]1O` [bimatoprost], the “release profile of bimatoprost” value in data set [2] (fully encapsulated film laminated at 131 degrees Fahrenheit (55 degrees Celsius)) was “zero-order release”. Moreover, in data set [2] (setting [5]), the “period of no or undetectable release” value was found to be 10 days and the “release profile of bimatoprost” value is “delayed sustained release”. The “drug released in the first 24 hours” value in data set [2] (monolayer 2 mm diameter carrier film compression molded at 152 degrees Fahrenheit (67 degrees Celsius)) is recorded as 99%. In data set [3], this molecule registered a decomposition temperature of 70 degrees Celsius.

Source of the values: US20130164347A1, “MULTILAYER POLYMERIC DRUG DELIVERY SYSTEM” (priority 2011, published 2013).
